The values that follow come from paper PMC5967867, “An NMDAR positive and negative allosteric modulator series share a binding site and are interconverted by methyl groups” (eLife, 2018).

Data set [1] addresses GluN1/GluN2A NMDARs (Rattus norvegicus, UniProt P35439+Q00959). As to the kind of experiment: Two-electrode voltage-clamp recordings, Xenopus laevis oocytes expressing GluN1/GluN2A. Format: cell-based. As to conditions: saturating glutamate/glycine 100/30 µM; for EC50: mean [95% CI], - = not fit, response at 30 µM differed by no more than 15% from control, read-out: EC50 (µM) [conf. int.]; for Emax: mean ± SEM, read-out: Maximal Degree of Modulation (% of control). As to the method:
(§1) cDNAs for rat wild type NMDAR subunits GluN1-1a (GenBank U11418, U08261; hereafter GluN1 or GluN1a), GluN1-1b (U08263, hereafter GluN1b), GluN2A (D13211), GluN2B (U11419), GluN2C (M91563), and GluN2D (L31611, modified as described in [Monyer et al., 1994]) were provided by Drs. S. Heinemann (Salk Institute), S. Nakanishi (Kyoto University), and P. Seeburg (University of Heidelberg). Site-directed mutagenesis was conducted using the QuikChange kit (Agilent Technologies, Santa Clara, CA) following the recommended protocol. DNA sequencing was used to verify all mutations. The amino acid numbering system started with the initiating methionine as residue number one. For expression in Xenopus laevis oocytes, cDNA constructs were linearized by restriction enzymes, and subsequently used to synthesize in vitro cRNAs following the manufacturer’s protocol (mMessage mMachine, Ambion, ThermoFisher Scientific, Waltham, MA).
(§2) Xenopus laevis stage VI oocytes (Ecocyte Biosciences, Austin, TX) were injected as previously described ([Hansen et al., 2013]) 2–7 days prior to recording with cRNA encoding the NMDAR subunits and stored at 15°C in media containing (in mM) 88 NaCl, 2.4 NaHCO3, 1 KCl, 0.33 Ca(NO3)2, 0.41 CaCl2, 0.82 MgSO4, 5 Tris-HCl; pH was adjusted to 7.4 with NaOH and the solution supplemented with 1 U/mL penicillin, 0.1 mg/mL gentamicin sulfate, and 1 μg/mL streptomycin. Two-electrode voltage-clamp recordings were performed at room temperature (21–23°C) using different internal solutions for voltage and current electrodes (0.3 M and 3.0 M KCl, respectively). All extracellular solutions were made from a solution containing (in mM) 90 NaCl, 1 KCl, 10 HEPES, 0.5 BaCl2, 0.01 EDTA (pH 7.4 with NaOH). Experiments were performed using an eight port Modular Valve Positioner (Hamilton Company, Reno, NV) and controlled by custom software (Easy Oocyte, Emory University, Atlanta, GA)to exchange solutions. Oocyte currents were recorded at a holding potential of −40 mV using a two-electrode voltage-clamp amplifier (OC-725B or OC-725C, Warner Instruments, Hamden, CT). […] In MTSEA experiments, fresh MTSEA solutions (0.2 mM) were prepared and utilized in less than 30 min to limit compound degradation.
(§3) Measurements are given as mean ± SEM unless otherwise indicated. The number of replicate experiments used was chosen to ensure a power level of at least 0.80 when α = 0.05 and when detecting appropriate effect sizes. EC50 and IC50 values and confidence intervals reported were calculated by averaging the log(EC50) or log(IC50) value, determining confidence intervals for mean log(EC50) or log(IC50), and converting back to units of molarity. Statistical significance evaluations (α set to 0.05) were performed using a one-way ANOVA with Dunnett’s multiple comparison test, a paired t–test, or other appropriate tests as described.

Data set [2] addresses GluN1/GluN2B NMDARs (Rattus norvegicus, UniProt P35439+Q00960). Briefly: Two-electrode voltage-clamp recordings, Xenopus laevis oocytes expressing GluN1/GluN2B. Format: cell-based. The settings on record: saturating glutamate/glycine 100/30 µM; for EC50: mean [95% CI], - = not fit, response at 30 µM differed by no more than 15% from control, read-out: EC50 (µM) [conf. int.]; for Emax: mean ± SEM, read-out: Maximal Degree of Modulation (% of control). On the procedure: as §1, §2, §3

For data set [3], the target named is GluN1/GluN2C NMDARs (Rattus norvegicus, UniProt P35439+Q00961). Briefly: Two-electrode voltage-clamp recordings, Xenopus laevis oocytes expressing GluN1/GluN2C. Type of data set: cell-based. As to conditions: saturating glutamate/glycine 100/30 µM; for EC50: mean [95% CI], read-out: EC50 (µM) [conf. int.]; for Emax: mean ± SEM, read-out: Maximal Degree of Modulation (% of control). On the procedure:
as §1, §2, §3

For data set [4], the target named is GluN1/GluN2D NMDARs (Rattus norvegicus, UniProt P35439+Q62645). As to the kind of experiment: Two-electrode voltage-clamp recordings, Xenopus laevis oocytes expressing GluN1/GluN2D. Format: cell-based. The settings on record: for Emax: mean ± SEM, read-out: Maximal Degree of Modulation (% of control). On the procedure: cDNAs for rat wild type NMDAR subunits GluN1-1a (GenBank U11418, U08261; hereafter GluN1 or GluN1a), GluN1-1b (U08263, hereafter GluN1b), GluN2A (D13211), GluN2B (U11419), Glu[…]), and Glu[…], modified as described in [Monyer et al., 1994]) were provided by Drs. S. Heinemann (Salk Institute), S. Nakanishi (Kyoto University), and P. Seeburg (University of Heidelberg). Site-directed mutagenesis was conducted using the QuikChange kit (Agilent Technologies, Santa Clara, CA) following the recommended protocol. DNA sequencing was used to verify all mutations. The amino acid numbering system started with the initiating methionine as residue number one. For expression in Xenopus laevis oocytes, cDNA constructs were linearized by restriction enzymes, and subsequently used to synthesize in vitro cRNAs following the manufacturer's protocol (mMessage mMachine, Ambion, ThermoFisher Scientific, Waltham, MA). […] All extracellular solutions were made from a solution containing (in mM) 90 NaCl, 1 KCl, 10 HEPES, 0.5 BaCl2, 0.01 EDTA (pH 7.4 with NaOH). Experiments were performed using an eight port Modular Valve Positioner (Hamilton Company, Reno, NV) and controlled by custom software (Easy Oocyte, Emory University, Atlanta, GA)to exchange solutions. Oocyte currents were recorded at a holding potential of -40 mV using a two-electrode voltage-clamp amplifier (OC-725B or OC-725C, Warner Instruments, Hamden, CT). […] Measurements are given as mean ± SEM unless otherwise indicated. […] EC50 and IC50 values and confidence intervals reported were calculated by averaging the log(EC50) or log(IC50) value, determining confidence intervals for mean log(EC50) or log(IC50), and converting back to units of molarity. Statistical significance evaluations (α set to 0.05) were performed using a one-way ANOVA with Dunnett's multiple comparison test, a paired t-test, or other appropriate tests as described.

Data set [5] has as its system NMDAR. The arrangement: method as in Kew et al., 1996. The settings on record: ref Kew et al., 1996; cited from earlier work.
[6] abbreviates: saturating glutamate/glycine 100/30 µM, mean [95% CI], read-out: EC50 (µM) [conf. int.].
Where [7] appears, read: saturating glutamate/glycine 100/30 µM.

Like-named read-outs stand apart in the source and are kept apart here.

Chain of GluN1/GluN2A NMDARs (Q00959 23-1464, other chains not shown): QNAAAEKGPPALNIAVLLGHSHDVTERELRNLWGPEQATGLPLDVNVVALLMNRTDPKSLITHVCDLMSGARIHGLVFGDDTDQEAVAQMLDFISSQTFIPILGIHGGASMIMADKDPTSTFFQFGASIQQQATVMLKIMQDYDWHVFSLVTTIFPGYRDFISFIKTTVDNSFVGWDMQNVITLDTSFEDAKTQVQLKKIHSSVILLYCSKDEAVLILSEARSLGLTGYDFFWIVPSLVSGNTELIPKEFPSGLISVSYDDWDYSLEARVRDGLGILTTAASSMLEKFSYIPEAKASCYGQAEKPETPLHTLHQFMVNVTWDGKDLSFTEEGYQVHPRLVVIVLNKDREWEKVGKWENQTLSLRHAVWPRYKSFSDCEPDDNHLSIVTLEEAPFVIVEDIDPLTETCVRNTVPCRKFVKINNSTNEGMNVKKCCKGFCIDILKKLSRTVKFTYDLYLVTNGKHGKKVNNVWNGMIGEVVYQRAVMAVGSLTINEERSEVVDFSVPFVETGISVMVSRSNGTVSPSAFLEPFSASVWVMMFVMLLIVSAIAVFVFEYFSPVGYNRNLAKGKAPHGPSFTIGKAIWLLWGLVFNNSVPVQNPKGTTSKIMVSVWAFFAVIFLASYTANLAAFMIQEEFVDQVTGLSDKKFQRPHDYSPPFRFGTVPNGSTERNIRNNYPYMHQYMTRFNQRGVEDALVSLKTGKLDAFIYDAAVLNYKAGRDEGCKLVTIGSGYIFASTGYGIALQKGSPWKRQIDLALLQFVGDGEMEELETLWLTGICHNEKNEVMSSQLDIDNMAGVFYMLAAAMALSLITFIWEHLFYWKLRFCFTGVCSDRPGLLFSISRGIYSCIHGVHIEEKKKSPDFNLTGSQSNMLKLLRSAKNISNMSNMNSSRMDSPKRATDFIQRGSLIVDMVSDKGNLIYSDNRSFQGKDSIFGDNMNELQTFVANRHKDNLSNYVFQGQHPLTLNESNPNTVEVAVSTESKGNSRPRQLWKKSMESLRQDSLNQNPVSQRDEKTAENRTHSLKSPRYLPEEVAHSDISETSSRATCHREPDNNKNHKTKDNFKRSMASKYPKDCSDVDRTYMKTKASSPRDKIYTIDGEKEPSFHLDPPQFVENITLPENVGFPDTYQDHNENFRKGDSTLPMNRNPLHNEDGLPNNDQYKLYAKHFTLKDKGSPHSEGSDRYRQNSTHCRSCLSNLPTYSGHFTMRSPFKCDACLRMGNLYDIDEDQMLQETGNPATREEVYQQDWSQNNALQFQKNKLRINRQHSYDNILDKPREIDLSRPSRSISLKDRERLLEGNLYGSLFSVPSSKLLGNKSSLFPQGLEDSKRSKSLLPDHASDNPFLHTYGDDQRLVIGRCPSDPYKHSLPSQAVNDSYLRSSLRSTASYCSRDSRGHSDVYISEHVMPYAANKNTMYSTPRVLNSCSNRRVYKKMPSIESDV
Chain of GluN1/GluN2B NMDARs (Q00960 27-1482, other chains not shown): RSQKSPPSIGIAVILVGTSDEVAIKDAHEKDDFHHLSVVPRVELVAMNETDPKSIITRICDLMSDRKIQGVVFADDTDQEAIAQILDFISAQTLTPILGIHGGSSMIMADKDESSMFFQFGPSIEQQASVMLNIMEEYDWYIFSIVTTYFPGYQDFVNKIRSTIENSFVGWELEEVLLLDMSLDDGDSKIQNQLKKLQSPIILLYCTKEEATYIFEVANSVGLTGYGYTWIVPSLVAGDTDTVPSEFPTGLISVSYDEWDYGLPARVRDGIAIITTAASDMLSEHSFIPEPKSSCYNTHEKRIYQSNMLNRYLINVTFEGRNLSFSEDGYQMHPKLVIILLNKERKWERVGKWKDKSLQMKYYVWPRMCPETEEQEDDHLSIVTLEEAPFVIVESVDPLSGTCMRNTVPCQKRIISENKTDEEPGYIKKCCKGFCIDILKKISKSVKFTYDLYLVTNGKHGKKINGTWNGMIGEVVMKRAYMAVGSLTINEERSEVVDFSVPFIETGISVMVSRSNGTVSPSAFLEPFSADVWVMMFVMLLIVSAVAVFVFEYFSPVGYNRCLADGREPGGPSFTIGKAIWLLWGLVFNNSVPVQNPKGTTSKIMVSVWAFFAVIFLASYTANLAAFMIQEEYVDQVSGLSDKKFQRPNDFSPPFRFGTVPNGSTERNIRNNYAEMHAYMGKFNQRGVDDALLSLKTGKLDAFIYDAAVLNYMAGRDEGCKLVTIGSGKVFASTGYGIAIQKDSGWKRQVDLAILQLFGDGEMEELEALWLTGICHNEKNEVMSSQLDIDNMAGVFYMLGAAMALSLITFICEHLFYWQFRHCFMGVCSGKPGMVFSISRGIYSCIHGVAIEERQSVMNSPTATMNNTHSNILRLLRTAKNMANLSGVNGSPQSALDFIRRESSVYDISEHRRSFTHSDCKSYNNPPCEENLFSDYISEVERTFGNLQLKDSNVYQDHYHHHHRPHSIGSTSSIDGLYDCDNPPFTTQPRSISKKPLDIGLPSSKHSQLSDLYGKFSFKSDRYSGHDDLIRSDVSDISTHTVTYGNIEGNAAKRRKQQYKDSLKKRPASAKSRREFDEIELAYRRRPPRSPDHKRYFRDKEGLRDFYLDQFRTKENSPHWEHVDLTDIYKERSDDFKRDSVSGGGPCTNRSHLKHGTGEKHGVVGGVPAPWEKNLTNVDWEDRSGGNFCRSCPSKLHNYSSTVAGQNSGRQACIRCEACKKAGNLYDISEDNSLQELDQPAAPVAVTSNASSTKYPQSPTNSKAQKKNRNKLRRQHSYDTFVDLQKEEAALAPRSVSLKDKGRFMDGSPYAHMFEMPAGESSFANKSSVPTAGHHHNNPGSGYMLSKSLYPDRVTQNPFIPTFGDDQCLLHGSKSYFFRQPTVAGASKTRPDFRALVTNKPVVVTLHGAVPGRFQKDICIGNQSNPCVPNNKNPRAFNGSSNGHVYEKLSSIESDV
Chain of GluN1/GluN2D NMDARs (Q62645 28-1323, other chains not shown): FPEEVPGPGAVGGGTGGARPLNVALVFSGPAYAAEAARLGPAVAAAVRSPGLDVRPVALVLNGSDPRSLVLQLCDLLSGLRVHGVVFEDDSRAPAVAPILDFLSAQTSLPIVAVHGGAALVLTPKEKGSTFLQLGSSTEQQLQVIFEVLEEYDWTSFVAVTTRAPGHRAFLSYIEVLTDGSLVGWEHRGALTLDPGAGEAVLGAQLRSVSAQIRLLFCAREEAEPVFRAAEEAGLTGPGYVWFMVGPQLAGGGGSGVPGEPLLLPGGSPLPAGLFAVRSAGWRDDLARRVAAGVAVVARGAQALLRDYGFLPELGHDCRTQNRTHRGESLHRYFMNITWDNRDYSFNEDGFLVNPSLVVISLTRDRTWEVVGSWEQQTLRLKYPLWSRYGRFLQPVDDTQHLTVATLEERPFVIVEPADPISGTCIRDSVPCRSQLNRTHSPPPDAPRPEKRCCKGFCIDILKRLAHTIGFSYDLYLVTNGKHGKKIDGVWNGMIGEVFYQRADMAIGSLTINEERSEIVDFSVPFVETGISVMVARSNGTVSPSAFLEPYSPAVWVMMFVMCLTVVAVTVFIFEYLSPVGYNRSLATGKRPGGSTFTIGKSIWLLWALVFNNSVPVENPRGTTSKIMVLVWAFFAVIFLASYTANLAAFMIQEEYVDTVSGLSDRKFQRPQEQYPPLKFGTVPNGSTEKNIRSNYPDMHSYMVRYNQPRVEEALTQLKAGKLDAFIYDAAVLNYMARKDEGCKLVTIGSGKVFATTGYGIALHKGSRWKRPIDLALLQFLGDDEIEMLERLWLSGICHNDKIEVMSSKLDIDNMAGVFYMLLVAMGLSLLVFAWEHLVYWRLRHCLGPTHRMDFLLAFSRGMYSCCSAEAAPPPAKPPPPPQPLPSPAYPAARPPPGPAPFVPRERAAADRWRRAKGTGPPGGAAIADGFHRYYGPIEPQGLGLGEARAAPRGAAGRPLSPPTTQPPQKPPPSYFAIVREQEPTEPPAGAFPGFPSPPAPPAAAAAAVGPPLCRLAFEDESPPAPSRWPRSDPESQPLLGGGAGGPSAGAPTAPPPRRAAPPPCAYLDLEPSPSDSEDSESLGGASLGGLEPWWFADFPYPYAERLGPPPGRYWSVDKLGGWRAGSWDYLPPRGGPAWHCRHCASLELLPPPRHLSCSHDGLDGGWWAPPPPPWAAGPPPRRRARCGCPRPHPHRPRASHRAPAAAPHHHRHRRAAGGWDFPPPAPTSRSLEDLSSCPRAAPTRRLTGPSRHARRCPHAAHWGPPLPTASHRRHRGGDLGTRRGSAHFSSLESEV

Take `CC(C)OC(=O)c1c(NC(=O)CC2SC(=N)NC2=O)sc2c1CCCC2` (stereo not shown) [EU1794-5, isopropyl 2-(2-(2-imino-4-oxothiazolidin-5-yl)acetamido)-4,5,6,7-tetrahydrobenzo[b]thiophene-3-carboxylate]: the melting point lay in the range of 152 to 154 °C. In addition, in data set [1], the EC50 was 18 µM and the Emax is 36%. Also, in data set [2], the EC50 worked out at 2.5 µM and the Emax was found to be 71%. Also, in data set [3], the EC50 stood at 4 µM and the Emax came out at 140%. The EC50 in data set [4] (setting [6]) came out at 9.3 µM.

For the molecule `CC1CCc2c(sc(NC(=O)CC3SC(=N)NC3=O)c2C(=O)OC(C)C)C1` (stereo not shown) [EU1794-19, isopropyl 2-(2-(2-imino-4-oxothiazolidin-5-yl)acetamido)-6-methyl-4,5,6,7-tetrahydrobenzo[b]thiophene-3-carboxylate], the melting point was 229 °C (dec.). Moreover, in data set [1], the EC50 was 1.1 µM and the Emax turned out to be 19%. Besides, in data set [2], the EC50 is 1.1 µM and the Emax came to 43%. In data set [3], the EC50 was 0.74 µM and the Emax amounted to 32%. Also, in data set [4] (setting [6]), the EC50 worked out at 0.43 µM. The Emax in data set [4] (setting [7]) was 46%.

Regarding `N=C1NC(=O)C(CC(=O)Nc2sc3c(c2C(=O)OCc2ccccc2)CCCC3)S1` (stereo not shown) [EU1794-25, benzyl 2-(2-(2-imino-4-oxothiazolidin-5-yl)acetamido)-4,5,6,7-tetrahydrobenzo[b]thiophene-3-carboxylate], the EC50 in data set [1] is above 30 µM; in data set [2], 1 µM; in data set [3], 0.77 µM; in data set [4] (setting [6]), 1 µM. Besides, the Emax in data set [2] came to 220%; in data set [3] it was 180%; in data set [4] (setting [7]) it was 250%.

Regarding `CCCCOC(=O)c1c(NC(=O)CC2SC(=N)NC2=O)sc2c1CCCC2` (stereo not shown) [EU1794-29, butyl 2-(2-(2-imino-4-oxothiazolidin-5-yl)acetamido)-4,5,6,7-tetrahydrobenzo[b]thiophene-3-carboxylate], the EC50 in data set [1] was determined as 3.7 µM; in data set [2], 1.4 µM; in data set [3], 3.8 µM; in data set [4] (setting [6]), 5.7 µM. Further, the Emax in data set [1] turned out to be 59%; in data set [2] it was 140%; in data set [3] it was 130%; in data set [4] (setting [7]), 166%.

Regarding `N[C@@H](CCC(=O)O)C(=O)O` [Glutamate, reference compound], the EC50 in data set [4] (read-out: Control Glutamate EC50 (µM) [conf. int.], glutamate EC50 in 30 µM glycine, absence of EU1794-27) was 0.21 µM.

Regarding `CC(C(O)c1ccc(O)cc1)N1CCC(Cc2ccccc2)CC1` (stereo not shown) [ifenprodil], the “residual current at saturating levels” value in data set [5] is ~ 10%.
